Earlier results, collected in US11667640B2, “Mitoketoscins: mitochondrial-based therapeutics targeting ketone metabolism in cancer cells” (LUNELLA BIOTECH, INC., priority 2017, dated 2023).

Molecular target: T1, ACAT1 (Homo sapiens, UniProt P24752)
T1 sequence (P24752 34-427): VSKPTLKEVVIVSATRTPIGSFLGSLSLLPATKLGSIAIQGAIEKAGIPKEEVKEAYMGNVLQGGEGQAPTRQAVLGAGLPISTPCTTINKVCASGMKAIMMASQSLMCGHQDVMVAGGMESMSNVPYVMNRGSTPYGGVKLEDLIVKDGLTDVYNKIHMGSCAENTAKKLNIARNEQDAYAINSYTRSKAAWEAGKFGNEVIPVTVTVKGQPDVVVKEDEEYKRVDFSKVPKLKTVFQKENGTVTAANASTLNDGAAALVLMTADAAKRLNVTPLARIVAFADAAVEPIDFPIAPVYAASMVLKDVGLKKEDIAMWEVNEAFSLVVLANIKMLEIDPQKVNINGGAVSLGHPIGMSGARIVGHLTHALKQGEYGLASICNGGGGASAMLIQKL
Details: Garcia-Bermudez et al, Mol Cell 2016

For `COC(=O)C1=CCCN(C)C1` [Arecoline], the ACAT1 inhibition is given as “potential ACAT1 inhibitor”.
